Reference: PMC8048568, “Synthesis of σ Receptor Ligands with a Spirocyclic System Connected with a Tetrahydroisoquinoline Moiety via Different Linkers” (Chemmedchem, 2021)
pKi: −log10 of the molar value. Read-outs that look alike come from different tables or passages of the source.

Key:
σ1 receptor [1] = settings: cited from earlier work
σ2 receptor = biological target: T1, σ2 receptor (Rattus norvegicus, UniProt Q5U3Y7); experiment: σ2 receptor competitive radioligand binding assay with [3H]DTG, σ1 masked with (+)-pentazocine; settings: for Ki: K i [nM]±SEM σ2, [3H]DTG, rat liver homogenate, mean of 3 experiments; for inhibition of the radioligand, σ2: 1 μM of the test compound, 1 µM; for inhibition of the radioligand, σ2 / inhibition at 1 µM: [3H]DTG, rat liver; for inhibition at 1 µM: read-out: inhibition of the radioligand, σ2, 1 μM of the test compound
T1 sequence (Q5U3Y7 1-176): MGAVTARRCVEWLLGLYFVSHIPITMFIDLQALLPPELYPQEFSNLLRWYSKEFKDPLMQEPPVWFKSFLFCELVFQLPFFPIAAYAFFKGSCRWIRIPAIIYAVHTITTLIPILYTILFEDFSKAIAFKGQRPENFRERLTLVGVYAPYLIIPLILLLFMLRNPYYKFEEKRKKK

σ1 receptor [2] = biological target: σ1 receptor (Cavia porcellus, UniProt Q60492); experiment: σ1 receptor competitive radioligand binding assay with [3H]-(+)-pentazocine; settings: for Ki: K i [nM]±SEM σ1, [3H]-(+)-pentazocine, guinea pig brain homogenate, mean of 3 experiments; for inhibition at 1 µM: read-out: inhibition of the radioligand, σ1
Sequence of σ1 receptor (Cavia porcellus, UniProt Q60492) (Q60492 whole entry): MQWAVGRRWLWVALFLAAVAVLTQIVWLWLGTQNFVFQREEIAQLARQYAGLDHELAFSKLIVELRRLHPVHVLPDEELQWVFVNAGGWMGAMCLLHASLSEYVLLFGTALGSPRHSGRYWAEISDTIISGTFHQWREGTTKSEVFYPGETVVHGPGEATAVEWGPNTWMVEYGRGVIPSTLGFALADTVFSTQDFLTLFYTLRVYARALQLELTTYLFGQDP

| Compound | Ki (σ2 receptor) | Ki (σ1 receptor [2]) | further results |
| --- | --- | --- | --- |
| COc1cc2c(cc1OC)CN(C(=O)CNC1CCC3(CC1)OC(OC)c1ccccc13)CC2 (stereo not drawn) [trans‐24, trans‐1‐(6,7‐Dimethoxy‐3,4‐dihydroisoquinolin‐2(1H)‐yl)‐2‐[N‐(3‐methoxy‐3H‐spiro[[2]benzofuran‐1,1′‐cyclohexan]‐4′‐yl)amino]ethan‐1‐one] |  |  | inhibition of the radioligand, σ2 (σ2 receptor): 0%; inhibition at 1 µM (σ1 receptor [2]): 15% |
| COc1cc2c(cc1OC)CN(C(=O)CN1CCC3(CC1)OC(OC)Cc1ccccc13)CC2 (centres unmarked) [Compound 21, 1‐(6,7‐Dimethoxy‐3,4‐dihydroisoquinolin‐2(1H)‐yl)‐2‐{3‐methoxy‐3,4‐dihydrospiro[[2]benzopyran‐1,4′‐piperidin]‐1′‐yl}ethan‐1‐one] |  | 319 nM | inhibition at 1 µM (σ2 receptor): 19% |
| COc1cc2c(cc1OC)CN(C(=O)CN1CCC3(CC1)OC(OC)c1ccccc13)CC2 (centres unmarked) [Compound 23, 1‐(6,7‐Dimethoxy‐3,4‐dihydroisoquinolin‐2(1H)‐yl)‐2‐{3‐methoxy‐3H‐spiro[[2]benzofuran‐1,4′‐piperidin]‐1′‐yl}ethan‐1‐one] |  |  | inhibition at 1 µM (σ2 receptor): 0%; inhibition at 1 µM (σ1 receptor [2]): 0% |
| Fc1ccc(-n2cc(CCCCN3CCC4(CC3)OCc3ccccc34)c3ccccc32)cc1 [siramesine] |  |  | pKi (σ1 receptor [1]; read-out: K i σ1 receptor): 7.77 |
| COc1cc2c(cc1OC)CN(C(=O)CNC1CCC3(CC1)OC(OC)c1ccccc13)CC2 (stereo not drawn) [cis‐24, cis‐1‐(6,7‐Dimethoxy‐3,4‐dihydroisoquinolin‐2(1H)‐yl)‐2‐[N‐(3‐methoxy‐3H‐spiro[[2]benzofuran‐1,1′‐cyclohexan]‐4′‐yl)amino]ethan‐1‐one] |  | 1600 nM | inhibition of the radioligand, σ2 (σ2 receptor): 9% |
| COc1cc2c(cc1OC)CN(CC(=O)NC1CCC3(CC1)OC(OC)Cc1ccccc13)CC2 (stereo not drawn) [trans‐26, trans‐2‐(6,7‐Dimethoxy‐3,4‐dihydroisoquinolin‐2(1H)‐yl)‐N‐(3‐methoxy‐3,4‐dihydrospiro[[2]benzopyran‐1,1′‐cyclohexan]‐4′‐yl)acetamide] |  |  | inhibition at 1 µM (σ2 receptor): 4%; inhibition at 1 µM (σ1 receptor [2]): 7% |
| COc1cc2c(cc1OC)CN(CCN1CCC3(CC1)OC(OC)Cc1ccccc13)CC2 (centres unmarked) [Compound 30, 1′‐[2‐(6,7‐Dimethoxy‐3,4‐dihydroisoquinolin‐2(1H)‐yl)ethyl]‐3‐methoxy‐3,4‐dihydrospiro[[2]benzopyran‐1,4′‐piperidine]] | 348 nM | 608 nM |  |
| COc1cc2c(cc1OC)CN(C(=O)CNC1CCC3(CC1)OC(OC)Cc1ccccc13)CC2 (stereo not drawn) [cis‐22, cis‐1‐(6,7‐Dimethoxy‐3,4‐dihydroisoquinolin‐2(1H)‐yl)‐2‐[N‐(3‐methoxy‐3,4‐dihydrospiro[[2]benzopyran‐1,1′‐cyclohexan]‐4′‐yl)amino]ethan‐1‐one] |  | 740 nM | inhibition at 1 µM (σ2 receptor): 11% |
| COc1cc2c(cc1OC)CN(CC(=O)N1CCC3(CC1)OC(OC)c1ccccc13)CC2 (centres unmarked) [Compound 28, 2‐(6,7‐Dimethoxy‐3,4‐dihydroisoquinolin‐2(1H)‐yl)‐1‐{3‐methoxy‐3H‐spiro[[2]benzofuran‐1,4′‐piperidin]‐1′‐yl}ethan‐1‐one] | 3400 nM |  | inhibition at 1 µM (σ1 receptor [2]): 19% |

The next lines start with results.

| Ki (σ2 receptor) | Ki (σ1 receptor [2]) | Compound | further results |
| --- | --- | --- | --- |
| 371 nM | 1000 nM | COc1cc2c(cc1OC)CN(CC(=O)NC1CCC3(CC1)OC(OC)Cc1ccccc13)CC2 (stereo not drawn) [cis‐26, cis‐2‐(6,7‐Dimethoxy‐3,4‐dihydroisoquinolin‐2(1H)‐yl)‐N‐(3‐methoxy‐3,4‐dihydrospiro[[2]benzopyran‐1,1′‐cyclohexan]‐4′‐yl)acetamide] |  |
| 2100 nM | 712 nM | COc1cc2c(cc1OC)CN(CCCC(=O)NC1CCC3(CC1)OC(OC)Cc1ccccc13)CC2 (stereo not drawn) [cis‐27, cis‐4‐(6,7‐Dimethoxy‐3,4‐dihydroisoquinolin‐2(1H)‐yl)‐N‐(3‐methoxy‐3,4‐dihydrospiro[[2]benzopyran‐1,1′‐cyclohexan]‐4′‐yl)butanamide] |  |
|  | 129 nM | COc1cc2c(cc1OC)CN(CC(=O)NC1CCC3(CC1)OC(OC)c1ccccc13)CC2 (stereo not drawn) [cis‐29, cis‐2‐(6,7‐Dimethoxy‐3,4‐dihydroisoquinolin‐2(1H)‐yl)‐N‐(3‐methoxy‐3H‐spiro[[2]benzofuran‐1,1′‐cyclohexan]‐4′‐yl)acetamide] | inhibition at 1 µM (σ2 receptor): 0% |
| 1900 nM | 1300 nM | COc1cc2c(cc1OC)CN(CC(=O)NC1CCC3(CC1)OC(OC)c1ccccc13)CC2 (stereo not drawn) [trans‐29, trans‐2‐(6,7‐Dimethoxy‐3,4‐dihydroisoquinolin‐2(1H)‐yl)‐N‐(3‐methoxy‐3H‐spiro[[2]benzofuran‐1,1′‐cyclohexan]‐4′‐yl)acetamide] |  |
| 200 nM | 251 nM | COc1cc2c(cc1OC)CN(CCNC1CCC3(CC1)OC(OC)Cc1ccccc13)CC2 (stereo not drawn) [cis‐31, cis‐N‐[2‐(6,7‐Dimethoxy‐3,4‐dihydroisoquinolin‐2(1H)‐yl)ethyl]‐3‐methoxy‐3,4‐dihydrospiro[[2]benzopyran‐1,1′‐cyclohexan]‐4′‐amine] |  |
| 534 nM | 518 nM | COc1cc2c(cc1OC)CN(CC(=O)N1CCC3(CC1)OC(OC)Cc1ccccc13)CC2 (centres unmarked) [Compound 25, 2‐(6,7‐Dimethoxy‐3,4‐dihydroisoquinolin‐2(1H)‐yl)‐1‐(3‐methoxy‐3,4‐dihydrospiro[[2]benzopyran‐1,4′‐piperidin]‐1′‐yl)ethan‐1‐one] |  |
| 499 nM | 1400 nM | COc1cc2c(cc1OC)CN(CCNC1CCC3(CC1)OC(OC)Cc1ccccc13)CC2 (stereo not drawn) [trans‐31, trans‐N‐[2‐(6,7‐Dimethoxy‐3,4‐dihydroisoquinolin‐2(1H)‐yl)ethyl]‐3‐methoxy‐3,4‐dihydrospiro[[2]benzopyran‐1,1′‐cyclohexan]‐4′‐amine] |  |
